Values joined by “and” are separate entries in the source; they are usually repeats but may differ in a detail not shown here. Identical values can stand only once.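 Five compound concentrations were applied to cells in 96-well plates for 48 hours; endpoints were derived by simple linear interpolation of the resulting dose-response curve. The concentration for 50% growth inhibition is given as GI50.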 Active and inactive are the calls of the source. No stated cut-off is given here; in the data, active = GI50 up to about 1.1 µM and inactive = higher.
How the values were obtained:
Experiment in all cases: growth of human tumour cells (NCI), 48 h
HCT-15 = tested on: HCT-15
Hs-578T = tested on: Hs-578T
HOP-62 = tested on: HOP-62
COLO 205 = tested on: COLO 205
HCC 2998 = tested on: HCC 2998
HT-29 = tested on: HT-29
RXF 393 = tested on: RXF 393
SK-MEL-2 = tested on: SK-MEL-2
DMS-273 = tested on: DMS-273
XF498 = tested on: XF498
DU-145 = tested on: DU-145
K562 = tested on: K562
DLD-1 = tested on: DLD-1
KM12 = tested on: KM12
MDA-MB-435 = tested on: MDA-MB-435
MOLT-4 = tested on: MOLT-4
NCI-H460 = tested on: NCI-H460
HOP-92 = tested on: HOP-92
HL-60 = tested on: HL-60
SF-295 = tested on: SF-295
MCF7 = tested on: MCF7
LOX IMVI = tested on: LOX IMVI
CCRF-CEM = tested on: CCRF-CEM
KM-20L2 = tested on: KM-20L2
SW-620 = tested on: SW-620
OVCAR-5 = tested on: OVCAR-5
RPMI-8226 = tested on: RPMI-8226
HOP-18 = tested on: HOP-18
T47D = tested on: T47D
NCI/ADR-RES = tested on: NCI/ADR-RES
MDA-MB-231 = tested on: MDA-MB-231
U-251 = tested on: U-251
M14 = tested on: M14
SN12C = tested on: SN12C
SF-268 = tested on: SF-268
SR = tested on: SR
OVCAR-3 = tested on: OVCAR-3
MDA-N = tested on: MDA-N
ACHN = tested on: ACHN
A549 = tested on: A549
HCT-116 = tested on: HCT-116
NCI-H23 = tested on: NCI-H23
SK-MEL-5 = tested on: SK-MEL-5
SF-539 = tested on: SF-539
UACC-257 = tested on: UACC-257
OVCAR-4 = tested on: OVCAR-4
Malme-3M = tested on: Malme-3M
CAKI-1 = tested on: CAKI-1
NCI-H226 = tested on: NCI-H226
NCI-H522 = tested on: NCI-H522
SNB-19 = tested on: SNB-19
SNB-75 = tested on: SNB-75
SK-MEL-28 = tested on: SK-MEL-28
OVCAR-8 = tested on: OVCAR-8
SK-OV-3 = tested on: SK-OV-3
LXFL 529 = tested on: LXFL 529
M19-MEL = tested on: M19-MEL
UACC-62 = tested on: UACC-62
UO-31 = tested on: UO-31
SNB-78 = tested on: SNB-78
IGROV-1 = tested on: IGROV-1
A498 = tested on: A498
DMS-114 = tested on: DMS-114
786-0 = tested on: 786-0
EKVX = tested on: EKVX
TK-10 = tested on: TK-10

For `CSc1nc(C)c(Br)c(=O)n1C1OC(COC(C)=O)C(OC(C)=O)C(OC(C)=O)C1OC(C)=O` (centres undefined), the GI50 (HCT-15) was over 100 µM, the GI50 (Hs-578T) was 42.9 µM (inactive) and the GI50 (HOP-62) was 26.8 µM (inactive) and 22 µM (inactive). For the same molecule, the GI50 (COLO 205) was > 100 µM (inactive), the GI50 (HCC 2998) was > 100 µM (inactive) and the GI50 (HT-29) was > 100 µM (inactive). For the same molecule, the GI50 (RXF 393) was 20.5 µM (inactive) and 19.9 µM (inactive), the GI50 (SK-MEL-2) was 56.5 µM (inactive) and the GI50 (DMS-273) was 27.7 µM (inactive). The GI50 (XF498) was 21.2 µM (inactive), the GI50 (DU-145) was > 100 µM (inactive) and the GI50 (K562) was > 100 µM (inactive). For the same molecule, the GI50 (DLD-1) was > 100 µM (inactive), the GI50 (KM12) was > 100 µM (inactive) and the GI50 (MDA-MB-435) was > 100 µM (inactive). For the same molecule, the GI50 (MOLT-4) was > 100 µM (inactive), the GI50 (NCI-H460) was > 100 µM (inactive) and 97.1 µM (inactive) and the GI50 (HOP-92) was 20.1 µM (inactive) and 13.6 µM (inactive). For the same molecule, the GI50 (HL-60) was > 100 µM (inactive), the GI50 (SF-295) was 24.2 µM (inactive) and 26.9 µM (inactive) and the GI50 (MCF7) was > 100 µM (inactive). The GI50 (LOX IMVI) was > 100 µM (inactive), the GI50 (CCRF-CEM) was > 100 µM (inactive) and the GI50 (KM-20L2) was > 100 µM (inactive). For the same molecule, the GI50 (SW-620) was > 100 µM (inactive), the GI50 (OVCAR-5) was > 100 µM (inactive) and 94.2 µM (inactive) and the GI50 (RPMI-8226) was > 100 µM (inactive). For the same molecule, the GI50 (HOP-18) was 60.4 µM (inactive), the GI50 (T47D) was > 100 µM (inactive) and the GI50 (NCI/ADR-RES) was > 100 µM (inactive). For the same molecule, the GI50 (MDA-MB-231) was 63.8 µM (inactive), the GI50 (U-251) was 39.1 µM (inactive) and 22.4 µM (inactive) and the GI50 (M14) was > 100 µM (inactive). The GI50 (SN12C) was > 100 µM (inactive), the GI50 (SF-268) was 34.1 µM (inactive) and 19.6 µM (inactive) and the GI50 (SR) was > 100 µM (inactive). For the same molecule, the GI50 (OVCAR-3) was > 100 µM (inactive) and the GI50 (MDA-N) was > 100 µM (inactive).

With `N#CC(/C(=N/NC(=N)N)C(=O)Nc1ccccc1[N+](=O)[O-])c1nc(-c2ccc([N+](=O)[O-])cc2)cs1` (centres undefined) the GI50 (HCT-15) was over 100 µM, the GI50 (ACHN) was > 100 µM (inactive) and the GI50 (A549) was > 100 µM (inactive). The GI50 (HOP-62) was > 100 µM (inactive), the GI50 (COLO 205) was > 100 µM (inactive) and the GI50 (HCC 2998) was > 100 µM (inactive). For the same molecule, the GI50 (HCT-116) was > 100 µM (inactive), the GI50 (HT-29) was > 100 µM (inactive) and the GI50 (RXF 393) was > 100 µM (inactive). For the same molecule, the GI50 (NCI-H23) was > 100 µM (inactive), the GI50 (SK-MEL-5) was > 100 µM (inactive) and the GI50 (SK-MEL-2) was > 100 µM (inactive). The GI50 (DMS-273) was > 100 µM (inactive), the GI50 (XF498) was > 100 µM (inactive) and the GI50 (SF-539) was > 100 µM (inactive). The GI50 (K562) was > 100 µM (inactive), the GI50 (DLD-1) was > 100 µM (inactive) and the GI50 (UACC-257) was > 100 µM (inactive). For the same molecule, the GI50 (KM12) was > 100 µM (inactive), the GI50 (OVCAR-4) was > 100 µM (inactive) and the GI50 (Malme-3M) was > 100 µM (inactive). The GI50 (CAKI-1) was > 100 µM (inactive), the GI50 (MOLT-4) was > 100 µM (inactive) and the GI50 (NCI-H460) was > 100 µM (inactive). The GI50 (NCI-H226) was > 100 µM (inactive), the GI50 (NCI-H522) was > 100 µM (inactive) and the GI50 (SNB-19) was > 100 µM (inactive). The GI50 (HL-60) was > 100 µM (inactive), the GI50 (SNB-75) was > 100 µM (inactive) and the GI50 (SF-295) was > 100 µM (inactive). For the same molecule, the GI50 (LOX IMVI) was > 100 µM (inactive), the GI50 (CCRF-CEM) was > 100 µM (inactive) and the GI50 (SK-MEL-28) was > 100 µM (inactive). For the same molecule, the GI50 (OVCAR-8) was > 100 µM (inactive), the GI50 (KM-20L2) was > 100 µM (inactive) and the GI50 (SK-OV-3) was > 100 µM (inactive). The GI50 (LXFL 529) was > 100 µM (inactive), the GI50 (SW-620) was > 100 µM (inactive) and the GI50 (M19-MEL) was > 100 µM (inactive). For the same molecule, the GI50 (OVCAR-5) was > 100 µM (inactive), the GI50 (RPMI-8226) was > 100 µM (inactive) and the GI50 (UACC-62) was > 100 µM (inactive). The GI50 (UO-31) was > 100 µM (inactive), the GI50 (SNB-78) was > 100 µM (inactive) and the GI50 (IGROV-1) was > 100 µM (inactive). The GI50 (U-251) was > 100 µM (inactive), the GI50 (M14) was > 100 µM (inactive) and the GI50 (A498) was > 100 µM (inactive). For the same molecule, the GI50 (DMS-114) was > 100 µM (inactive), the GI50 (SN12C) was > 100 µM (inactive) and the GI50 (SF-268) was > 100 µM (inactive). The GI50 (SR) was > 100 µM (inactive), the GI50 (OVCAR-3) was > 100 µM (inactive) and the GI50 (786-0) was > 100 µM (inactive). For the same molecule, the GI50 (EKVX) was > 100 µM (inactive) and the GI50 (TK-10) was > 100 µM (inactive).

From ChEMBL document CHEMBL1201862, “PubChem BioAssay data set” (2004)
